Assay results: ChEMBL document CHEMBL1921755, “The synthesis of xanthones, xanthenediones, and spirobenzofurans: their antibacterial and antifungal activity” (2011)
Values after ≈ are worked out from the molar mass of the structure shown.

Legend:
Type in all cases: functional
Staphylococcus aureus = assay: Antibacterial activity against Staphylococcus aureus ATCC 2587
Moraxella catarrhalis = assay: Antibacterial activity against Moraxella catarrhalis […]
Candida albicans [1] = assay: Antifungal activity against Candida albicans ATCC 10231
Cryptococcus neoformans = assay: Antifungal activity against Cryptococcus neoformans ATCC 90112
Bacillus cereus = assay: Antibacterial activity against Bacillus cereus ATCC 11778
Escherichia coli = assay: Antibacterial activity against Escherichia coli ATCC 8739
Bacillus subtilis = assay: Antibacterial activity against Bacillus subtilis
Candida albicans [2] = assay: Antifungal activity against Candida albicans
Nakaseomyces glabratus = assay: Antifungal activity against Candida glabrata

MIC (Staphylococcus aureus) [µg/mL] | MIC (Moraxella catarrhalis) [µg/mL] | MIC (Candida albicans [1]) [µg/mL] | MIC (Cryptococcus neoformans) [µg/mL] | MIC (Bacillus cereus) [µg/mL] | MIC (Escherichia coli) [µg/mL] | MIC (Bacillus subtilis) [µM] | MIC (Candida albicans [2]) [µg/mL] | MIC (Nakaseomyces glabratus) [µM] | SMILES
62.5 (≈ 244 µM) | 125 (≈ 488 µM) | 31.3 (≈ 122 µM) | 31.3 (≈ 122 µM) | 46.9 (≈ 183 µM) | 125 (≈ 488 µM) |  |  |  | COc1cc2oc3ccccc3c(=O)c2cc1OC
156 (≈ 690 µM) | 625 (≈ 2760 µM) | 156 (≈ 690 µM) | 78.1 (≈ 345 µM) | 312 (≈ 1380 µM) | 312 (≈ 1380 µM) |  |  |  | COc1ccc2oc3ccccc3c(=O)c2c1
93.7 (≈ 387 µM) | 125 (≈ 516 µM) | 3.6 (≈ 14.9 µM) | 3.6 (≈ 14.9 µM) | 31.3 (≈ 129 µM) | 125 (≈ 516 µM) |  |  |  | COC12C=CC(=O)C=C1C(=O)c1ccccc1O2 (centres undefined)
125 (≈ 516 µM) | 125 (≈ 516 µM) | 31.3 (≈ 129 µM) | 15.6 (≈ 64.4 µM) | 31.3 (≈ 129 µM) | 125 (≈ 516 µM) |  |  |  | COc1c(O)ccc2oc3ccccc3c(=O)c12
62.5 (≈ 195 µM) | 125 (≈ 389 µM) | 7.8 (≈ 24.3 µM) | 15.6 (≈ 48.6 µM) | 31.3 (≈ 97.5 µM) | 62.5 (≈ 195 µM) |  |  |  | COC12C=CC(=O)C=C1C(=O)c1cc(Br)ccc1O2 (centres undefined)
250 (≈ 859 µM) | > 250 | 31.3 (≈ 108 µM) | 11.7 (≈ 40.2 µM) | 31.3 (≈ 108 µM) | 125 (≈ 429 µM) |  |  |  | O=c1c2cc(O)ccc2oc2ccc(Br)cc12
62.5 (≈ 178 µM) | 125 (≈ 356 µM) | 31.3 (≈ 89.1 µM) | 15.6 (≈ 44.4 µM) | 31.3 (≈ 89.1 µM) | 188 (≈ 534 µM) |  |  |  | COC1=CC2(OC)Oc3ccc(Br)cc3C(=O)C2=CC1=O (centres undefined)
62.5 (≈ 178 µM) | 125 (≈ 356 µM) | 31.3 (≈ 89.1 µM) | 15.6 (≈ 44.4 µM) | 31.3 (≈ 89.1 µM) | 62.5 (≈ 178 µM) |  |  |  | COC1=CC2(Oc3ccc(Br)cc3C2=O)C(OC)=CC1=O (centres undefined)
62.5 (≈ 195 µM) | 125 (≈ 389 µM) | 31.3 (≈ 97.5 µM) | 15.6 (≈ 48.6 µM) | 31.3 (≈ 97.5 µM) | 125 (≈ 389 µM) |  |  |  | COc1cc2oc3ccc(Br)cc3c(=O)c2cc1O
62.5 (≈ 179 µM) | > 250 | 31.3 (≈ 89.9 µM) | 23.4 (≈ 67.2 µM) | 46.9 (≈ 135 µM) | 125 (≈ 359 µM) |  |  |  | COC1=CC2(Oc3ccc(-c4ccccc4)cc3C2=O)C(OC)=CC1=O (centres undefined)
15.6 (≈ 41.4 µM) | 125 (≈ 332 µM) | 31.3 (≈ 83.2 µM) | 15.6 (≈ 41.4 µM) | 15.6 (≈ 41.4 µM) | 62.5 (≈ 166 µM) |  |  |  | COC1=CC2(Oc3ccc(-c4ccccc4C=O)cc3C2=O)C(OC)=CC1=O (centres undefined)
78.1 (≈ 267 µM) | 78.1 (≈ 267 µM) | 78.1 (≈ 267 µM) | 19.5 (≈ 66.7 µM) | 19.5 (≈ 66.7 µM) | 156 (≈ 534 µM) |  |  |  | COC12Oc3ccccc3C(=O)C1=CC(=O)c1ccccc12 (centres undefined)
19.5 (≈ 59.7 µM) | 312 (≈ 956 µM) | 469 (≈ 1430 µM) | 29.2 (≈ 89.4 µM) | 78.1 (≈ 239 µM) | 469 (≈ 1430 µM) |  |  |  | COC12Oc3ccc(Cl)cc3C(=O)C1=CC(=O)c1ccccc12 (centres undefined)
156 (≈ 509 µM) | 312 (≈ 1020 µM) | 156 (≈ 509 µM) | 39 (≈ 127 µM) | 156 (≈ 509 µM) | 312 (≈ 1020 µM) |  |  |  | COC1=CC2(Oc3ccc(Cl)cc3C2=O)C(OC)=CC1=O (centres undefined)
117 (≈ 403 µM) | 625 (≈ 2150 µM) | 156 (≈ 537 µM) | 78.1 (≈ 269 µM) | 312 (≈ 1070 µM) | 312 (≈ 1070 µM) |  |  |  | COc1cc2oc3ccc(Cl)cc3c(=O)c2cc1OC
39 (≈ 127 µM) | 156 (≈ 509 µM) | 20.8 (≈ 67.8 µM) | 15.6 (≈ 50.9 µM) | 39 (≈ 127 µM) | 156 (≈ 509 µM) |  |  |  | COC1=CC2(OC)Oc3ccc(Cl)cc3C(=O)C2=CC1=O (centres undefined)
234 (≈ 899 µM) | 1250 (≈ 4800 µM) | 234 (≈ 899 µM) | 156 (≈ 599 µM) | 625 (≈ 2400 µM) | 625 (≈ 2400 µM) |  |  |  | COc1ccc2oc3ccc(Cl)cc3c(=O)c2c1
156 (≈ 565 µM) | 156 (≈ 565 µM) | 156 (≈ 565 µM) | 7.8 (≈ 28.2 µM) | 156 (≈ 565 µM) | 312 (≈ 1130 µM) |  |  |  | COC12C=CC(=O)C=C1C(=O)c1cc(Cl)ccc1O2 (centres undefined)
 |  |  |  |  |  | 4.6 (≈ 1.43 µg/mL) |  |  | CC1(C)C=Cc2c(cc3oc4c(O)cccc4c(=O)c3c2O)O1
 |  |  |  |  |  |  | 20 (≈ 56.7 µM) |  | COC1=CC(=O)C[C@@H](C)[C@]12Oc1c(Cl)c(OC)cc(OC)c1C2=O [GRISEOFULVIN]
 |  |  |  |  |  |  |  | 2.44 (≈ 0.884 µg/mL) | CC(C)=CCc1cccc2c(=O)c3c(O)cc4c(c3oc12)C=CC(C)(C)O4 [LAURENTIXANTHONE A]

SMILES | MIC (Staphylococcus aureus) [µg/mL] | MIC (Moraxella catarrhalis) [µg/mL] | MIC (Candida albicans [1]) [µg/mL] | MIC (Cryptococcus neoformans) [µg/mL] | MIC (Bacillus cereus) [µg/mL] | MIC (Escherichia coli) [µg/mL] | MIC (Bacillus subtilis) [µM] | MIC (Candida albicans [2]) [µg/mL] | MIC (Nakaseomyces glabratus) [µM]
O=C(O)c1cn(C2CC2)c2cc(N3CCNCC3)c(F)cc2c1=O [CIPROFLOXACIN] | 1.25 (≈ 3.77 µM) | 1.25 (≈ 3.77 µM) |  |  | 0.08 (≈ 0.241 µM) |  |  |  | 
